These results are taken from PubChem BioAssay AID330 (DTP/NCI, 2004).

The assay concerns P388 leukemia ip, CD2F1 mice, survival T/C. Briefly: NCI In Vivo Anticancer Drug Screen. Data for tumor model P388 Leukemia (intraperitoneal) in CD2F1 (CDF1) mice. The settings on record: endpoint: median survival time, higher = longer survival. The method, boiled down:
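Mice carrying the transplanted tumor received test compound or vehicle. Survival was recorded in each group, and the value is the treated-group measurement divided by that of the vehicle-treated control group.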

Setting [1] is: dose: 6.25 mg/kg/injection, schedule: Q01DX009 (ip), vehicle: saline with Tween-80.
[2] abbreviates: dose: 12.5 mg/kg/injection, schedule: Q01DX009 (ip), vehicle: saline with Tween-80.
[3] abbreviates: dose: 25.0 mg/kg/injection, schedule: Q01DX009 (ip), vehicle: saline with Tween-80.
Where [4] appears, read: dose: 50.0 mg/kg/injection, schedule: Q01DX005 (ip), vehicle: Klucel (hydroxypropylcellulose) (HPC).
[5] abbreviates: dose: 100.0 mg/kg/injection, schedule: Q01DX005 (ip), vehicle: Klucel (hydroxypropylcellulose) (HPC).
The mark [6] stands for this setting: dose: 100.0 mg/kg/injection, schedule: Q01DX009 (ip), vehicle: saline with Tween-80.
[7] abbreviates: dose: 200.0 mg/kg/injection, schedule: Q01DX009 (ip), vehicle: saline with Tween-80.
Setting [8] is: dose: 400.0 mg/kg/injection, schedule: Q01DX009 (ip), vehicle: saline with Tween-80.
Where [9] appears, read: dose: 50.0 mg/kg/injection, schedule: Q01DX009 (ip), vehicle: saline with Tween-80.
Setting [10] is: dose: 60.0 mg/kg/injection, schedule: Q01DX005 (ip), vehicle: saline.
The mark [11] stands for this setting: dose: 120.0 mg/kg/injection, schedule: Q01DX005 (ip), vehicle: saline.
[12] abbreviates: dose: 240.0 mg/kg/injection, schedule: Q01DX005 (ip), vehicle: saline.
Setting [13] is: dose: 60.0 mg/kg/injection, schedule: Q01DX005 (ip), vehicle: saline with Tween-80.
The mark [14] stands for this setting: dose: 120.0 mg/kg/injection, schedule: Q01DX005 (ip), vehicle: saline with Tween-80.
[15] abbreviates: dose: 50.0 mg/kg/injection, schedule: Q01DX009 (ip), vehicle: Klucel (hydroxypropylcellulose) (HPC).

Values joined by “and” are separate entries in the source; they are usually repeats but may differ in a detail not shown here. Identical values can stand only once. Toxic doses and inconclusive results are not listed.

As to `COc1ccc(C(=O)/C=C/c2ccc(OCc3ccccc3)cc2)c(OC)c1`, the T/C runs as follows: under setting [1], 99 % of control; under setting [2], 93 % of control; under setting [3], 91 % of control.

Regarding `CCCCCCCCCCCC[N+]1(CCCCCCCCCCCC)CCCC(C)C1` (centres undefined), the T/C (dose: 0.75 mg/kg/injection, schedule: Q01DX009 (ip), vehicle: Klucel (hydroxypropylcellulose) (HPC)) was 113 % of control.

Consider `Cc1cc(N)c2cc(NC(=O)CCCCCC(=O)Nc3ccc4nc(C)cc(N)c4c3)ccc2n1`, for which the T/C under setting [1] is 100 % of control, the T/C under setting [2] is 110 % of control and the T/C under setting [3] is 118 % of control.

Turning to `CCn1c2ccc(C=O)cc2c2cc([N+](=O)[O-])ccc21`, the T/C reads like this: under setting [4], 92 % of control; under setting [5], 86 % of control; (dose: 200.0 mg/kg/injection, schedule: Q01DX005 (ip), vehicle: Klucel (hydroxypropylcellulose) (HPC)) 86 % of control.

As for `COc1ccc(/C(C)=C\C(=O)O)cc1`, the T/C reads like this: under setting [6], 90 % of control; under setting [7], 100 % of control; under setting [8], 100 % of control.

Regarding `O=C1OC(c2ccccc2)c2cccnc21` (centres undefined), the T/C (dose: 100.0 mg/kg/injection, schedule: Q04DX002 (ip), vehicle: saline with Tween-80) was 101 % of control; the T/C (dose: 200.0 mg/kg/injection, schedule: Q04DX002 (ip), vehicle: saline with Tween-80) was 92 % of control; the T/C (dose: 400.0 mg/kg/injection, schedule: Q04DX002 (ip), vehicle: saline with Tween-80) is 98 % of control.

As to `O=C1CCCC2OC12` (centres undefined), the T/C was 110 % of control (dose: 100.0 mg/kg/injection, schedule: Q04DX002 (ip), vehicle: saline) and 112 % of control (dose: 200.0 mg/kg/injection, schedule: Q04DX002 (ip), vehicle: saline).

In the case of `CCC[CH2][Sn][Cl]`, the T/C runs as follows: under setting [9], 104 % of control; under setting [6], 114 % of control; under setting [7], 117 % of control.

With `CCNC(=O)OCCN(CCOC(=O)NCC)CCc1ccccc1`, the T/C under setting [10] is 110 % of control, the T/C under setting [11] is 117 % of control and the T/C under setting [12] is 99 % of control.

Turning to `Cc1cc2c(cc1C)C(=O)c1cc3c(cc1C2=O)OCO3`, the T/C is, setting by setting: under setting [13], 94 % of control; under setting [14], 91 % of control; (dose: 240.0 mg/kg/injection, schedule: Q01DX005 (ip), vehicle: saline with Tween-80) 89 % of control.

Take `CN(c1ccc(C2=NCCN2)cc1)S(=O)(=O)c1ccc(Cc2ccc(S(=O)(=O)N(C)c3ccc(C4=NCCN4)cc3)cc2)cc1`: the T/C reads like this: (dose: 6.25 mg/kg/injection, schedule: Q01DX005 (ip), vehicle: Klucel (hydroxypropylcellulose) (HPC)) 103 % of control; (dose: 12.5 mg/kg/injection, schedule: Q01DX005 (ip), vehicle: Klucel (hydroxypropylcellulose) (HPC)) 97 % of control.

As for `C1C[N-]CC[N-]CC[N-]CC[N-]1.[Cl][Rh][Cl]`, the T/C (dose: 0.66 mg/kg/injection, schedule: Q01DX009 (ip), vehicle: saline) was 117 % of control; the T/C (dose: 1.0 mg/kg/injection, schedule: Q01DX009 (ip), vehicle: saline) is 115 % of control; the T/C (dose: 1.5 mg/kg/injection, schedule: Q01DX009 (ip), vehicle: saline) is 115 % of control; the T/C (dose: 2.25 mg/kg/injection, schedule: Q01DX009 (ip), vehicle: saline) was 108 % of control; the T/C (dose: 3.13 mg/kg/injection, schedule: Q01DX009 (ip), vehicle: saline) was 121 % of control; the T/C (dose: 6.25 mg/kg/injection, schedule: Q01DX009 (ip), vehicle: saline) is 116 % of control. Under “dose: 12.5 mg/kg/injection, schedule: Q01DX009 (ip), vehicle: saline”, the T/C was 108 % of control.

Consider `Cc1cc2c(cc1C)NC1=C(N2)OC(c2ccccc2C)C1=O` (centres undefined), for which the T/C runs as follows: (dose: 60.0 mg/kg/injection, schedule: Q01DX005 (ip), vehicle: Klucel (hydroxypropylcellulose) (HPC)) 96 % of control; (dose: 120.0 mg/kg/injection, schedule: Q01DX005 (ip), vehicle: Klucel (hydroxypropylcellulose) (HPC)) 106 % of control.

On to `C(=N/c1ccccn1)/c1ccc(/C=N\c2ccccn2)cc1`, for which the T/C is 108 % of control under setting [9], 100 % of control under setting [6], 106 % of control under setting [7] and 116 % of control under setting [8].

`COc1cccc2c1C(=O)c1c(O)c3c(c(O)c1C2=O)C[C@@](O)(C(=O)CO)C[C@@H]3OC1CC(NC=O)C(O)C(C)O1` (some centres undefined): the T/C by setting is: (dose: 1.56 mg/kg/injection, schedule: Q01DX009 (ip), vehicle: Klucel (hydroxypropylcellulose) (HPC)) 95 % of control; (dose: 7.4 mg/kg/injection, schedule: Q01DX009 (ip), vehicle: other) 163 % of control; (dose: 11.0 mg/kg/injection, schedule: Q01DX009 (ip), vehicle: other) 157 % of control; (dose: 16.5 mg/kg/injection, schedule: Q01DX009 (ip), vehicle: other) 163 % of control; (dose: 25.0 mg/kg/injection, schedule: Q01DX009 (ip), vehicle: other) 192 % of control; (dose: 37.5 mg/kg/injection, schedule: Q01DX009 (ip), vehicle: other) 201 % of control. In addition, the T/C under setting [15] was 121 % of control.

For `CCOC(=O)CCCCCCCNC(=O)N1c2c(nc(N)[nH]c2=O)NCC1CNc1ccc(C(=O)NC(CCC(=O)O)C(=O)O)cc1` (centres undefined), the T/C (dose: 50.0 mg/kg/injection, schedule: Q01DX001 (ip), vehicle: sodium bicarbonate) was 100 % of control; the T/C (dose: 100.0 mg/kg/injection, schedule: Q01DX001 (ip), vehicle: sodium bicarbonate) is 101 % of control; the T/C (dose: 200.0 mg/kg/injection, schedule: Q01DX001 (ip), vehicle: sodium bicarbonate) is 100 % of control.

In the case of `Nc1ccc2ccc(NS(=O)(=O)N3CCCCC3)cc2c1`, the T/C (dose: 25.0 mg/kg/injection, schedule: Q01DX005 (ip), vehicle: saline with Tween-80) was 108 % of control.

`CNC(=O)N=Nc1ccccc1`: the T/C is, setting by setting: (dose: 50.0 mg/kg/injection, schedule: Q01DX005 (ip), vehicle: saline + Tween-80 + alcohol) 100 % of control; (dose: 100.0 mg/kg/injection, schedule: Q01DX005 (ip), vehicle: saline + Tween-80 + alcohol) 100 % of control; (dose: 200.0 mg/kg/injection, schedule: Q01DX005 (ip), vehicle: saline + Tween-80 + alcohol) 100 % of control.

Consider `CC(=O)Nc1ccc(C(=O)CN(Cc2ccccc2)Cc2ccccc2)cc1`, for which the T/C under setting [4] was 87 % of control and the T/C under setting [5] was 87 % of control.

Take `Nc1nccc(CCc2ccccc2)n1`: the T/C reads like this: under setting [13], 101 % of control; under setting [14], 95 % of control.

In the case of `Cc1ccc(S(=O)(=O)NC(C)(COS(=O)(=O)c2ccc(C)cc2)COS(=O)(=O)c2ccc(C)cc2)cc1`, the T/C under setting [15] is 95 % of control; the T/C (dose: 100.0 mg/kg/injection, schedule: Q01DX009 (ip), vehicle: Klucel (hydroxypropylcellulose) (HPC)) is 96 % of control; the T/C (dose: 200.0 mg/kg/injection, schedule: Q01DX009 (ip), vehicle: Klucel (hydroxypropylcellulose) (HPC)) was 96 % of control.

In the case of `N#CC1Oc2ccccc2N1C(=O)c1ccccc1` (centres undefined), the T/C (dose: 50.0 mg/kg/injection, schedule: Q01DX005 (ip), vehicle: saline with Tween-80) is 101 % of control; the T/C (dose: 100.0 mg/kg/injection, schedule: Q01DX005 (ip), vehicle: saline with Tween-80) was 102 % of control; the T/C (dose: 200.0 mg/kg/injection, schedule: Q01DX005 (ip), vehicle: saline with Tween-80) is 90 % of control.

Take `O=C(c1ccc2c(c1)OCO2)S(=O)(=O)O`: the T/C under setting [10] was 102 % of control, the T/C under setting [11] was 96 % of control and the T/C under setting [12] was 97 % of control.

Regarding `CC(C)C/C=C/CCCCCCCCCC(=O)NCC(=O)NC1C(C)OC(Nc2ncnc3nc[nH]c23)C(O)C1O` (centres undefined), the T/C runs as follows: (dose: 0.5 mg/kg/injection, schedule: Q01DX009 (ip), vehicle: water) 112 % of control and 123 % of control (2×); (dose: 1.0 mg/kg/injection, schedule: Q01DX009 (ip), vehicle: water) 101 % of control and 103 % of control and 121 % of control; (dose: 2.0 mg/kg/injection, schedule: Q01DX009 (ip), vehicle: water) 155 % of control; (dose: 4.0 mg/kg/injection, schedule: Q01DX009 (ip), vehicle: water) 123 % of control and 87 % of control; (dose: 8.0 mg/kg/injection, schedule: Q01DX009 (ip), vehicle: water) 156 % of control and 178 % of control.
